Laboratory results from US20060134693A1, “Olfactory cyclic nucleotide-gated channel cell-based assays to identify T1R and T2R taste modulators” (priority 2001, published 2006).
Values belong to the compound of their own block, whether it stands above or below them. Peptide text beside a SMILES is read from it.

How the values were obtained:
[1] = test system: Parental CNG cells lacking the human sweet GPCR; assay: Control Parental CNG cells lacking the human sweet GPCR, FLIPR384 response; type: cell-based; conditions: 5 mM Aspartame, average of 2
Method: (§1) Methods: […] This cell line was derived from HEK293 cells. CNG136 was tested with several sweet receptor agonists and modulators including, Compound 6542888, Compound 3069733, and Aspartame. Response to 10 uM of 6542888 and 3069733 and 5 mM Aspartame was measured using a FLIPR384 instrument (Molecular Devices) and is reported in Table I below. Data were normalized to the maximum activity obtained with a saturating concentration of Aspartame (5 mM). Compounds were also tested on control (“Parental CNG”) cells lacking the human sweet GPCR.

[2] = test system: untransfected HEK 293-oCNGC cells; assay: Isoproterenol-induced calcium influx in untransfected HEK 293-oCNGC cells; type: cell-based, human; conditions: cells not expressing hT1R2/hT1R3; increasing concentrations; 200 nM isoproterenol; FIG. 14
Method: Delta F/F valves were normalized to the fluorescence obtained after stimulation with 200 nM isoproterenol. Each value corresponds to the mean ± SD of a triplicate determination.
(§2) Modulation of oCNG activity by taste receptors is measured in a cell-based assay that detects changes in intracellular calcium (as described in earlier examples). In brief, human embryonic kidney cells stably expressing the OCNC1 and are β1b subunits of oCNGC are transiently or stably transfected with T1R or T2R receptor plasmids. Transfected cells are seeded into 384-well culture plates, and functional expression is allowed to proceed for about 24 to 48 hours. The cells are then incubated with a calcium specific fluorescent dye (Fluo-4 or Fura-2, available from Molecular Probes) that provides for fast, simple and reliable fluorimetric detection of changes in calcium concentration within the cell.
An experiment was conducted to confirm that the effects of the sweeteners on calcium influx requires the expression of the sweet receptor.
In FIG. 14, it is shown that increasing concentrations of the tested sweeteners had no inhibitory effect on isoproterenol-induced calcium influx in untransfected HEK 293—oCNGC cells. Again, Delta F/F values were normalized to the fluorescence obtained after stimulation with 200 nM isoproternol and each value component to the mean ± SD of a triplicate determination).

[3] = target: T1, human sweet receptor hT1R2/hT1R3 (Homo sapiens, UniProt Q7RTX0+Q8TE23); assay: Isoproterenol-induced calcium influx in HEK-293-oCNGC cells expressing hT1R2/hT1R3; type: cell-based; conditions: PTX 100 ng/ml for 4 hours; 200 nM isoproterenol; 5 mM Aspartame, 2 mM Cyclamate, 4 mM Saccharin, 0.1 mM Neotame; FIG. 15
T1 construct: host or cells: human embryonic kidney cells (earlier application U.S. Ser. No. 10/770,127)
T1 sequence (Q8TE23 20-839): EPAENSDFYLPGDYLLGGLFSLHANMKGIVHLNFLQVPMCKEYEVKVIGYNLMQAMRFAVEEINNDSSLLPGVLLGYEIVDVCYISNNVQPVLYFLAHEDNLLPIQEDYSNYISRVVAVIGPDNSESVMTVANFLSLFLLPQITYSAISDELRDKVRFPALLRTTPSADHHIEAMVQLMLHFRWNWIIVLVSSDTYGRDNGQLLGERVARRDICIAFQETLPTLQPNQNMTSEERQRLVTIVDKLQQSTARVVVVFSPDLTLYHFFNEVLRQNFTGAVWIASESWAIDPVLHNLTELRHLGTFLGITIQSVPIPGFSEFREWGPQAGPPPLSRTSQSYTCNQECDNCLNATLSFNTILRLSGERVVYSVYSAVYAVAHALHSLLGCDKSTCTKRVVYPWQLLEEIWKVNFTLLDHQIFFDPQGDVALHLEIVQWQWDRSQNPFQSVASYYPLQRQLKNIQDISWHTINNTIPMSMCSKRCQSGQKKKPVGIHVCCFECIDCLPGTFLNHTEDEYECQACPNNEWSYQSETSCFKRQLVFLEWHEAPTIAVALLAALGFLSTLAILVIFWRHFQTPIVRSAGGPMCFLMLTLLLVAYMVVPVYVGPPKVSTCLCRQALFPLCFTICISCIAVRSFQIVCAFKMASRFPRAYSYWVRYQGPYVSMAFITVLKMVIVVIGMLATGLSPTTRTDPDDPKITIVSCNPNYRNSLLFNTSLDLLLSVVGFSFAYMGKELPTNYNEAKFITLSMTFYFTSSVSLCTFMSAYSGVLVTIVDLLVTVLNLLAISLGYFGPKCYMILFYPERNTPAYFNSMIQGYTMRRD
T1 sequence (Q7RTX0 21-852): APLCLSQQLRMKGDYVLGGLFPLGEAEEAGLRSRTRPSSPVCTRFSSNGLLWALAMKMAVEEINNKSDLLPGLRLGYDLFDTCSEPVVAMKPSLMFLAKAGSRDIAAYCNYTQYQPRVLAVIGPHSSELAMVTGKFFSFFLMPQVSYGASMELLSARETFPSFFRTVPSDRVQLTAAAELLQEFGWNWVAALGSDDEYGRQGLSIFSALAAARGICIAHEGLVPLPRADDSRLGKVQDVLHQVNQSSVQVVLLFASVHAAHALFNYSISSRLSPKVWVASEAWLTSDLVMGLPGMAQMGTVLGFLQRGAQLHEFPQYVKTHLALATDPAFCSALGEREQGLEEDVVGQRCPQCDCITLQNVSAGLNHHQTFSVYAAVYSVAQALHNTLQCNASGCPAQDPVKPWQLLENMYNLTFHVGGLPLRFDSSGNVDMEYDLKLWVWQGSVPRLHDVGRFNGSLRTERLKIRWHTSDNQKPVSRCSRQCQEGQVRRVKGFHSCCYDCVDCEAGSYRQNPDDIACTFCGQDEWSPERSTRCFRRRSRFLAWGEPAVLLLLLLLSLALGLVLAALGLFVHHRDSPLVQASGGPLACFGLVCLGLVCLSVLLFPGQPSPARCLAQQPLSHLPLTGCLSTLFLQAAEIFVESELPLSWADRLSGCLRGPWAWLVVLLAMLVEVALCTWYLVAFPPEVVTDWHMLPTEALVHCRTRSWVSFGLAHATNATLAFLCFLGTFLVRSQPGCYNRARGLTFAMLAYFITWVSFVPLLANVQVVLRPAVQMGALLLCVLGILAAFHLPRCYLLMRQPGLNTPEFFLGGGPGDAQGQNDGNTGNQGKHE
Method: FIG. 13 contains the result of an experiment showing that increasing concentrations of sweeteners inhibit the isoproterenol-induced-calcium influx in HEK 293-oCNGC cells expressing the human sweet receptor hT1R2/hT1R3. Delta F/F values were normalized to the fluorescence obtained after stimulation with 200 nM isoproterenol. Each value corresponds to the mean ± SD of a triplicate determination.
Cells were left untreated (control) or treated with PTX for 4 hours at 100 ng/ml prior to the experiment. Cells were then stimulated with 200 nM isoproterenol in the presence or absence of the indicated sweeteners (5 mM Aspartame, 2 mM Cyclamate, 4 mM Saccharin and 0.1 mM Neotame).
as §2
An experiment was conducted to assess the effect of various sweeteners (known to activate the human T1R2/T1R3 sweet receptor) on isoproterenol-induced calcium influx in HEK-293—oCNGC cells that express the human T1R2/T1R3 sweet receptor. As shown by the results in FIG. 13, increasing concentrations of sweetener inhibits isoproterenol-induced calcium influx in these cells. (In the figure, Delta F/F values were normalized to the fluorescence obtained after stimulation with 200 nM isoproterenol and each value corresponds to the means ± SD of a triplicate determination). […]

[4] = target: T2, human T1R2/T1R3 sweet taste GPCR (Homo sapiens, UniProt Q7RTX0+Q8TE23); assay: CNG136 cell line (HEK293-derived, co-expressing human CNG channel and human T1R2/T1R3), FLIPR384 response; type: cell-based; conditions: 5 mM Aspartame (saturating concentration, the normalization reference); average of 2
T2 construct: expressed in transfected cells; host or cells: CNG136, derived from HEK293
T2 sequence (Q8TE23 20-839): T1 sequence (Q8TE23 20-839)
T2 sequence (Q7RTX0 21-852): T1 sequence (Q7RTX0 21-852)
Method: as §1

[5] = target: T3, mouse olfactory receptor, mOREG (Mus musculus, UniProt Q920P2); assay: Calcium dye fluorescence microscopy, HEK-293 cells transfected with mOREG and human olfactory CNG channel subunits; type: cell-based; conditions: CNG channel dependent and mOREG dependent, FIG. 9
T3 construct: expressed in transfected cells; host or cells: HEK-293, co-transfected with OCNC1[C458W/E581M], OCNC2 and β1b
T3 sequence (Q920P2 1-313): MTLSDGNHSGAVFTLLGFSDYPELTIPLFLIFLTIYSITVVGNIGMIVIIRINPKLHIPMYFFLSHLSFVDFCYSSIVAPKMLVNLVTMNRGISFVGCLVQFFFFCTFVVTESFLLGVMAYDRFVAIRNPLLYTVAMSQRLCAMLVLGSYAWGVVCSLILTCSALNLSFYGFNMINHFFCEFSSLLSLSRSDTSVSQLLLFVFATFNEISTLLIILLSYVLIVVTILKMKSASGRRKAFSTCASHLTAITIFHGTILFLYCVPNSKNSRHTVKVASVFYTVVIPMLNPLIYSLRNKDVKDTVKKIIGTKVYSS
Method: HEK-293 cells were transfected with OCNC1[C458W/E581FM], OCNC2, and β1band a mouse olfactory receptor, mOREG, that is activated by eugenol (Kajiya et al., 2001). Transfected cells were seeded onto multi-well plates. After 48 hours, cells were loaded with a calcium dye for one hour, then washed, and their response to eugenol stimulation was monitored by fluorescence microscopy.

[6] = test system: human olfactory CNG channel; assay: FLIPR calcium assay, HEK-293 cells stably expressing the human olfactory CNG channel; type: cell-based; conditions: calcium dye; versus parent cells; FIG. 11
Method: The HEK-293 cells that stably express the human olfactory CNG channel were seeded into FLIPR imaging plates 24 hours prior to the experiment, on plates pre-coated with matrigel. The cells were loaded with a fluorescent calcium dye for one hour, washed and transferred to a FLIPR automated fluorometric plate reader with on-board fluidics. […] Therefore, the cell-based assay is amenable to high throughput applications.

HEK-293-oCNGC cells = assay: Calcium influx in HEK-293-oCNGC cells on isoproterenol addition; type: cell-based, human; conditions: increasing concentrations; FIG. 12
Method: FIG. 12 contains the results of an experiment showing that increasing concentrations of isoproterenol induce calcium influx in HEK 293-oCNGC cells. Delta F/F corresponds to the maximum fluorescence value obtained after stimulation minus the minimum fluorescence measured before stimulation and normalized to the minimum fluorescence measure before stimulation.
as §2
This accumulation of CAMP induces oCNGC activation, which in turn causes extracellular calcium to flow inside the cells, resulting in a net increase of intracellular calcium concentration and a parallel increase of the fluorescence signal in the cells (FIG. 12).

[7] = test system: activity-enhanced human olfactory CNG channel; assay: FLIPR calcium assay, HEK-293 cells stably expressing the activity-enhanced human olfactory CNG channel; type: cell-based; conditions: calcium dye; versus parent cells and wild type CNG subunits; FIG. 11
Method: The HEK-293 cells that stably express the activity-enhanced human olfactory CNG channel were seeded into FLIPR imaging plates 24 hours prior to the experiment, on plates pre-coated with matrigel. The cells were loaded with a fluorescent calcium dye for one hour, washed and transferred to a FL]PR automated fluorometric plate reader with on-board fluidics. […] Therefore, the cell-based assay is amenable to high throughput applications, especially with respect to low affinity modulators.

inhibition of isoproterenol-induced calcium influx after PTx pretreatment [3]: prevented the inhibition
% Max Activity CNG136 [4]: 100%
Structure (SMILES): COC(=O)[C@H](Cc1ccccc1)NC(=O)[C@@H](N)CC(=O)O [Aspartame] (H-Asp-Phe-OMe)
% Activity CNG (Parental Cells) [1]: 0%
effect on isoproterenol-induced calcium influx [2]: unaffected

Structure (SMILES): C=CCc1ccc(O)c(OC)c1 [Eugenol, eugenol]
fluorescence response [5]: elicited fluorescence increases

Structure (SMILES): CC(C)NCC(O)c1ccc(O)c(O)c1 (centres unmarked) [isoproterenol]
fluorescence response [6]: increased fluorescence
calcium influx (HEK-293-oCNGC cells): in a dose-dependent manner
fluorescence response [7]: fluorescence similar to that observed with wild type CNG subunits
